In ChEMBL document CHEMBL4706658, “Discovery and Biological Evaluation of N-Methyl-pyrrolo[2,3-b]pyridine-5-carboxamide Derivatives as JAK1-Selective Inhibitors” (J Med Chem, 2021):
Active and inactive are the calls of the source. No cut-off for these calls is given here.

Key:
[1] = target: T1, Tyrosine-protein kinase JAK1 (Homo sapiens, UniProt P23458)
Description: Inhibition of recombinant JAK1 (unknown origin) using GFP-STAT1 as substrate incubated for 1 hr followed by anti-pSTAT1 antibody addition and measured after 30 mins by Lanthascreen TR-FRET assay

[2] = target: T2, Tyrosine-protein kinase JAK2 (Homo sapiens, UniProt O60674)
Description: Inhibition of recombinant JAK2 (unknown origin) using GFP-STAT1 as substrate incubated for 1 hr followed by anti-pSTAT1 antibody addition and measured after 30 mins by Lanthascreen TR-FRET assay

[3] = target: T3, Non-receptor tyrosine-protein kinase TYK2 (Homo sapiens, UniProt P29597)
Description: Inhibition of recombinant TYK2 (unknown origin) using GFP-STAT1 as substrate incubated for 1 hr followed by anti-pSTAT1 antibody addition and measured after 30 mins by Lanthascreen TR-FRET assay

[4] = target: T3, Non-receptor tyrosine-protein kinase TYK2; conditions: BaF3
Description: Inhibition of TYK2 (unknown origin) transfected in mouse BAF3 cells assessed as cell growth inhibition incubated for 72 hrs by CCK8 assay

[5] = target: T2, Tyrosine-protein kinase JAK2; conditions: BaF3
Description: Inhibition of JAK2 (unknown origin) transfected in mouse BAF3 cells assessed as cell growth inhibition incubated for 72 hrs by CCK8 assay

[6] = target: T4, Tyrosine-protein kinase JAK3 (Homo sapiens) (UniProt P52333); conditions: BaF3
T4 sequence (whole entry): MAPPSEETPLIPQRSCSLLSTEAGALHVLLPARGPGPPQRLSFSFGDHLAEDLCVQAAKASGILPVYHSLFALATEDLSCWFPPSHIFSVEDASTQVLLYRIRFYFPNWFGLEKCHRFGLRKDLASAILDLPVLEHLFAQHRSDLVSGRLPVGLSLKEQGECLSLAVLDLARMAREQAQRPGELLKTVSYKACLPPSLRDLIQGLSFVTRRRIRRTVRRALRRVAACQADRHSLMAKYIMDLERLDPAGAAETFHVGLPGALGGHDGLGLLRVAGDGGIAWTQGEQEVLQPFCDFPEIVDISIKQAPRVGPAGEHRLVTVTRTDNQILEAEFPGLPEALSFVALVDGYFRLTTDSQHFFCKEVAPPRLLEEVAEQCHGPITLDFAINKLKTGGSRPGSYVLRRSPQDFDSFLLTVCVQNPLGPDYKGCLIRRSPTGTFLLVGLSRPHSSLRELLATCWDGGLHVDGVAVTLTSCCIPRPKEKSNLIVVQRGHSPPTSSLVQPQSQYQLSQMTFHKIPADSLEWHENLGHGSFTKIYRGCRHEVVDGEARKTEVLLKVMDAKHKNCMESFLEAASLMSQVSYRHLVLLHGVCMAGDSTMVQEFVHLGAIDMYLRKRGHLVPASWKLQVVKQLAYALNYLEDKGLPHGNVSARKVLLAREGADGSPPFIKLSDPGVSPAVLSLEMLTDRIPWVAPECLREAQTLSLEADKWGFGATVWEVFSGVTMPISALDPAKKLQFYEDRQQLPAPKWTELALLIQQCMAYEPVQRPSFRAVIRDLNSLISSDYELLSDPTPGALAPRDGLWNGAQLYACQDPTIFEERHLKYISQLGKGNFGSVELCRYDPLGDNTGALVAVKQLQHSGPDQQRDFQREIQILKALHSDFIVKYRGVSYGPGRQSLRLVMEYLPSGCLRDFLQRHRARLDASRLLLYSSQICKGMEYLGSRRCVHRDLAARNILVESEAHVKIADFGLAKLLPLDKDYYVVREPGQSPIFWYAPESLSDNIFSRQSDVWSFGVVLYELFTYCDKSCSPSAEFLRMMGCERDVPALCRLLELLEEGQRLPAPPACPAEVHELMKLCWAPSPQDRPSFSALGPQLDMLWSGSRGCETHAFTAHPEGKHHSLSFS
Description: Inhibition of JAK3 (unknown origin) transfected in mouse BAF3 cells assessed as cell growth inhibition incubated for 72 hrs by CCK8 assay

[7] = target: T1, Tyrosine-protein kinase JAK1; conditions: BaF3
Description: Inhibition of JAK1 (unknown origin) transfected in mouse BAF3 cells assessed as cell growth inhibition incubated for 72 hrs by CCK8 assay

[8] = tested on: LX2; conditions: Homo sapiens, dose lower […], dose upper 500.0 nM
[9] = tested on: LX2; conditions: Homo sapiens, dose 500.0 nM
[10] = tested on: LX2; conditions: Homo sapiens, dose 500.0 nM; remark: listed apart in the source
[11] = tested on: LX2; conditions: Homo sapiens, dose 500.0 nM; remark: listed apart in the source
[12] = target: CYP2C9 (Homo sapiens, UniProt P11712); experiment: in vitro
Description: Inhibition of CYP2C9 (unknown origin) at 10 uM relative to control

[13] = target: CYP2D6 (Homo sapiens, UniProt P10635); experiment: in vitro
Description: Inhibition of CYP2D6 (unknown origin) at 10 uM relative to control

[14] = in vitro; conditions: dog, MDCK
Description: Permeability of compound across apical to basolateral side in MDCK cells at 10 uM

[15] = target: Vascular endothelial growth factor receptor 1 (Homo sapiens, UniProt P17948)
[16] = in vitro; conditions: mouse, microsomes
Description: Metabolic stability in mouse liver microsomes assessed as parent compound remaining at 10 uM measured after 30 mins relative to control

[17] = target: T5, CYP1A2 (Homo sapiens, UniProt P05177); experiment: in vitro
T5 sequence (P05177 whole entry): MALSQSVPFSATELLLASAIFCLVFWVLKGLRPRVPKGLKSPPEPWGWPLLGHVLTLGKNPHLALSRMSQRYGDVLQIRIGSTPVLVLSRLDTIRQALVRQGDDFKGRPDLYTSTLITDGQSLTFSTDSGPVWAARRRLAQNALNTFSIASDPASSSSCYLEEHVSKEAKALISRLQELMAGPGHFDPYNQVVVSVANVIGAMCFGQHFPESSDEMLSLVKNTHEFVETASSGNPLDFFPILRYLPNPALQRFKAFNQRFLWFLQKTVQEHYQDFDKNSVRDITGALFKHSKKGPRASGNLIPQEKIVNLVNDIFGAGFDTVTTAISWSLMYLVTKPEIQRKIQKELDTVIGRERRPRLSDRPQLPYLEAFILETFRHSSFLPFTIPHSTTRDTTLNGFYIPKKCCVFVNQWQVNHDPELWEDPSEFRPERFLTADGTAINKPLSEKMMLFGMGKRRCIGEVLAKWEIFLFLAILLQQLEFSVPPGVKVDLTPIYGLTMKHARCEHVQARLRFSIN
Description: Inhibition of CYP1A2 (unknown origin) at 10 uM relative to control

[18] = in vitro; conditions: rat, plasma
Description: Stability in rat plasma assessed as compound remaining at 2 uM measured after 2 hrs relative to control

[19] = target: CYP3A4 (Homo sapiens, UniProt P08684); experiment: in vitro
[20] = in vitro; conditions: human, microsomes
Description: Metabolic stability in human liver microsomes assessed as parent compound remaining at 10 uM measured after 30 mins relative to control

[21] = cells; format: functional, LX2; conditions: Homo sapiens, LX-2, 72 h; time hrs <=72
[22] = in vitro; conditions: rat, microsomes
Description: Metabolic stability in rat liver microsomes assessed as parent compound remaining at 10 uM measured after 30 mins relative to control

[23] = in vitro; conditions: human, lx2
[24] = target: CYP2C19 (Homo sapiens, UniProt P33261); experiment: in vitro
Description: Inhibition of CYP2C19 (unknown origin) at 10 uM relative to control

[25] = in vitro; conditions: human, plasma
Description: Stability in human plasma assessed as compound remaining at 2 uM measured after 2 hrs relative to control

[26] = in vitro; conditions: dog, MDCK; remark: listed apart in the source
Description: Permeability of compound across basolateral to apical side in MDCK cells at 10 uM

T3 sequence (P29597 whole entry): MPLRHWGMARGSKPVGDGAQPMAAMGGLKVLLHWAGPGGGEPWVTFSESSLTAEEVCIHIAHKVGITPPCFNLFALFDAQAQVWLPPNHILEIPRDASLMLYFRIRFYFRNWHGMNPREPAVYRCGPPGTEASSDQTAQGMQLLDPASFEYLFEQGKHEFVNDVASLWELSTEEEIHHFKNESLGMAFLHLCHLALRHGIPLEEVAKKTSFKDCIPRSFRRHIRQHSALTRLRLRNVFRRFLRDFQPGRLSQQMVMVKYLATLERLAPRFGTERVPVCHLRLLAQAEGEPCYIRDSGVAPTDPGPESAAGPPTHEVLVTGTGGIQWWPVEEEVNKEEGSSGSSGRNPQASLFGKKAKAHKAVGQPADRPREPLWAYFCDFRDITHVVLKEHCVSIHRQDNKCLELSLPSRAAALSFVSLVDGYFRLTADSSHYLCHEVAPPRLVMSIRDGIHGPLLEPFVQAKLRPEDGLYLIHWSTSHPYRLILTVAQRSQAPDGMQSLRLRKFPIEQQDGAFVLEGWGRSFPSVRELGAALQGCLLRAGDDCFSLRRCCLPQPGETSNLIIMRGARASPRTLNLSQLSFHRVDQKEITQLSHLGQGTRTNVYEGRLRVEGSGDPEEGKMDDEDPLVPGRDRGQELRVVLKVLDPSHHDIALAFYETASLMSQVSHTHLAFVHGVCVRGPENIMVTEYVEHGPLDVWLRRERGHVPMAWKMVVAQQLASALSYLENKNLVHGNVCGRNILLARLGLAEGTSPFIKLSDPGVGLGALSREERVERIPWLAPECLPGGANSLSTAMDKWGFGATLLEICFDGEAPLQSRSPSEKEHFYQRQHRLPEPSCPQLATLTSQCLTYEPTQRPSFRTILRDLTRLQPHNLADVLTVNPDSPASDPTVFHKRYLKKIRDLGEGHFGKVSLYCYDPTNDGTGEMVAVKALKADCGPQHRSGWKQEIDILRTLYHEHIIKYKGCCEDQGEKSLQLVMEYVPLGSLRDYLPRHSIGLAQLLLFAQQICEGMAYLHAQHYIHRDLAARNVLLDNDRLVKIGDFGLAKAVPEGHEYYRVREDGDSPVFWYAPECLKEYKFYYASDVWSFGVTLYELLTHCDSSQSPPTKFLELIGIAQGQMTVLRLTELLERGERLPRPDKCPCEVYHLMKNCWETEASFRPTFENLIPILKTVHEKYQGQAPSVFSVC
T1 sequence (P23458 whole entry): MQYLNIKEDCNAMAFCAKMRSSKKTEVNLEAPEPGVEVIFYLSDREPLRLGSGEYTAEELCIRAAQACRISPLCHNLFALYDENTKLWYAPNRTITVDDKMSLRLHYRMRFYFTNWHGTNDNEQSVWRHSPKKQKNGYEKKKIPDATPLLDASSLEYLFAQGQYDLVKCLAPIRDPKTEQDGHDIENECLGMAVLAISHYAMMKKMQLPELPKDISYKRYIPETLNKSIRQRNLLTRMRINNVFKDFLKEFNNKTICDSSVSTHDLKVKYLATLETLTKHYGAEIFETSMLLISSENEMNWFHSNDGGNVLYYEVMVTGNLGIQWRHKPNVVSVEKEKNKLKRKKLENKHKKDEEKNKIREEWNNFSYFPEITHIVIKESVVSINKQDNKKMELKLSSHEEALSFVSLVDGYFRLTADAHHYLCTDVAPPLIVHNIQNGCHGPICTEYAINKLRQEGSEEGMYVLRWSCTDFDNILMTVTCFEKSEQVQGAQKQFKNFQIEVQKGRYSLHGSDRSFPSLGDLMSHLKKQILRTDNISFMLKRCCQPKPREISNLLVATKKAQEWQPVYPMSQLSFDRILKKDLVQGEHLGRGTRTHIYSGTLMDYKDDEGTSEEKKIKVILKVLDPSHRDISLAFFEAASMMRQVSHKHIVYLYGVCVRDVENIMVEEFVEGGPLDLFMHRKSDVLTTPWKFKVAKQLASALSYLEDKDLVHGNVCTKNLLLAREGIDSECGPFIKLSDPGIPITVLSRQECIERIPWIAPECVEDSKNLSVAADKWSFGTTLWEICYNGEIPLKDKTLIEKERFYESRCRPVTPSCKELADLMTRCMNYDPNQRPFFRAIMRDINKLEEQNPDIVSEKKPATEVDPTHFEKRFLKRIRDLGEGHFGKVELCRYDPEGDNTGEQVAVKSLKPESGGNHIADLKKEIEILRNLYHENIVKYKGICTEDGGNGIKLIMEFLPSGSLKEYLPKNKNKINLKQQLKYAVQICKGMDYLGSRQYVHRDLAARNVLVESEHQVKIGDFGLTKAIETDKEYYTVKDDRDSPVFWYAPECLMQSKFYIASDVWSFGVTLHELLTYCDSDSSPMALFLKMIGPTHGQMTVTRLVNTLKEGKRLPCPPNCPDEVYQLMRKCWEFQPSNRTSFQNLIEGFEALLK
T2 sequence (O60674 whole entry): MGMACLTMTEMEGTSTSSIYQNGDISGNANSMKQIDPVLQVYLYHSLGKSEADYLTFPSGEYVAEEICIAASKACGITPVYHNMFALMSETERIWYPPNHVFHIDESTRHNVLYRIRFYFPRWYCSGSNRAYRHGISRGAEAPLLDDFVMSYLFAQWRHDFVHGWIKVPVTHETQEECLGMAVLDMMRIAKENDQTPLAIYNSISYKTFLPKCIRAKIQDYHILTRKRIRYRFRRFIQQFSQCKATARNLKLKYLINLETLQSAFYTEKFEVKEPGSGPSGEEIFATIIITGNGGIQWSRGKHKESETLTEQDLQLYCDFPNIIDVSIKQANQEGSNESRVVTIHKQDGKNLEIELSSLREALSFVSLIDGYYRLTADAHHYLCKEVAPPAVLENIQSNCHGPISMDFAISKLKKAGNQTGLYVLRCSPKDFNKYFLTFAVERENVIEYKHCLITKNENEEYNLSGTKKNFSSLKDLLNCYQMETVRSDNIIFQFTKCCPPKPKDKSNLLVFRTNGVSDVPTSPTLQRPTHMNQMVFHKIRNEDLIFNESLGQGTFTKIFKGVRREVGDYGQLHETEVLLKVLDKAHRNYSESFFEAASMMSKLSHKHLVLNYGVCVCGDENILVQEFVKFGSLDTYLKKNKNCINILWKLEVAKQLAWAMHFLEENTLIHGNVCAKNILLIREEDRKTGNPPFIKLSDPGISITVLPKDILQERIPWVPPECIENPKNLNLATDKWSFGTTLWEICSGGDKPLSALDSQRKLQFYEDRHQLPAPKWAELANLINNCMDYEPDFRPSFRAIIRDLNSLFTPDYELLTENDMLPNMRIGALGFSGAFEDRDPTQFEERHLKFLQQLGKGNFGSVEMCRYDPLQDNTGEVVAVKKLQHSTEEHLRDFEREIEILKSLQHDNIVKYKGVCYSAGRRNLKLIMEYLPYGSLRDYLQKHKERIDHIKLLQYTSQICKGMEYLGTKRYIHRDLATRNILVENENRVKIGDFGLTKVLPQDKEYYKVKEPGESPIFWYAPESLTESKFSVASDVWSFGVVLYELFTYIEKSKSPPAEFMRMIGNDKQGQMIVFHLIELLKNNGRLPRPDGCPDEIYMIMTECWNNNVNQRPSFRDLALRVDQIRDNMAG
CYP2C9, sequence (P11712 whole entry): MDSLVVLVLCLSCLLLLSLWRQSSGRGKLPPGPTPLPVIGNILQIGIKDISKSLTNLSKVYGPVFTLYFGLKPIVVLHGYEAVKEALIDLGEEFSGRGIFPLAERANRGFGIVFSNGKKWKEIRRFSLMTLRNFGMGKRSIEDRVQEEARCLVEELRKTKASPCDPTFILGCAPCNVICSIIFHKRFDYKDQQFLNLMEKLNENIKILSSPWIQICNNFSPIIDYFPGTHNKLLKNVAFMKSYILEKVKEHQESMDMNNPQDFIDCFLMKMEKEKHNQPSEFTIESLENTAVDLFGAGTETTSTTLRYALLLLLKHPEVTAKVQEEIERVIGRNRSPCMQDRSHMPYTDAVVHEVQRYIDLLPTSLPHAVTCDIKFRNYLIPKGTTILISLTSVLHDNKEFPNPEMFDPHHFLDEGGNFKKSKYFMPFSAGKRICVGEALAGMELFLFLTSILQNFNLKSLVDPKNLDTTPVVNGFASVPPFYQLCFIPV
CYP2D6, sequence (P10635 whole entry): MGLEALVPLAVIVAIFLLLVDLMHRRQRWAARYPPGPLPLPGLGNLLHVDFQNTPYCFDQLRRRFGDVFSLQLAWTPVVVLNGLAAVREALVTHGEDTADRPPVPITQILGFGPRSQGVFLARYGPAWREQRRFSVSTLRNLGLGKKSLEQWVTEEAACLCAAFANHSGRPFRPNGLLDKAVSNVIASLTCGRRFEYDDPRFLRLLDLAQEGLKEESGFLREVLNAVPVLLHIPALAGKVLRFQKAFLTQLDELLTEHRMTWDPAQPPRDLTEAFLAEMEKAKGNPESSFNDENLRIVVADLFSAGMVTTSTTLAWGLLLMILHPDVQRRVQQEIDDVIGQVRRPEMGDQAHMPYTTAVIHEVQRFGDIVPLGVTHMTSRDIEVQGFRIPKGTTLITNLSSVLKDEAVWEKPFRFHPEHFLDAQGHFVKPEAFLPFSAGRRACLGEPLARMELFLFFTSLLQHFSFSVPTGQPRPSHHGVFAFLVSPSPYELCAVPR
CYP3A4, sequence (P08684 whole entry): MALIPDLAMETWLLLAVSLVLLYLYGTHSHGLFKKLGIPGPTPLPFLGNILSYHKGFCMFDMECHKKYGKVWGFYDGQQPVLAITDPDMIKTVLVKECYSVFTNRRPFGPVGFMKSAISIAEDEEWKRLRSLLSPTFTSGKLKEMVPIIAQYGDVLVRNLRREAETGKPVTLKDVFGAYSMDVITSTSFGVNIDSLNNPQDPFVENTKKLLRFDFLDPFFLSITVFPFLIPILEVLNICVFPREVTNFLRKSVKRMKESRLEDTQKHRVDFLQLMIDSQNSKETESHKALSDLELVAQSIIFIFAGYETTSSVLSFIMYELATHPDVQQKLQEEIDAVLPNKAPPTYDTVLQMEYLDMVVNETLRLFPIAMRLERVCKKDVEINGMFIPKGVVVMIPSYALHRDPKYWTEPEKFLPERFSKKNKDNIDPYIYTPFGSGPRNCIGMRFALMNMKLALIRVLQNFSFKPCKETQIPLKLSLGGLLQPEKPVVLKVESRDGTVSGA

| Structure (SMILES) | IC50 [1] | IC50 [2] | IC50 [3] | GI50 [4] | GI50 [7] | other results |
| --- | --- | --- | --- | --- | --- | --- |
| CNC(=O)c1cnc2[nH]ccc2c1NC1CCN(Cc2cccc(OC)c2)CC1 | 18 nM | 469 nM | 1210 nM | – | – | – |
| C[C@@H]1C[C@H](Nc2c(C(N)=O)cnc3[nH]ccc23)CCN1Cc1cccc(Cl)c1 (relative stereo) | 6.87 nM | 93.8 nM | 48.4 nM | – | – | – |
| O=C(NC1CCCC1)c1cnc2[nH]ccc2c1NC1CCN(Cc2ccccc2)CC1 | > 10000 nM | – | – | – | – | – |
| CNC(=O)c1cnc2[nH]ccc2c1NC1CC2CCC(C1)N2Cc1ccc(Cl)cc1 (centres undefined) | – | – | – | 1710 nM | 1800 nM | GI50 [5]: 3950 nM; GI50 [6]: 3900 nM |
| CNC(=O)c1cnc2[nH]ccc2c1NC1CCN(Cc2ccc(OC)c(OC)c2)CC1 | 8400 nM | > 10000 nM | – | – | – | – |
| CNC(=O)c1cnc2[nH]ccc2c1N[C@H]1CCN(Cc2ccc(Cl)cc2)[C@@H](C)C1 | – | – | – | 475 nM | 6.4 nM | GI50 [6]: 1140 nM |
| CC(=O)Nc1cc(Oc2ccc3c(c2)CCN3C(=O)Nc2ccc(CN3CCN(C)CC3)c(C(F)(F)F)c2)ncn1 | – | – | – | 150 nM | 129 nM | GI50 [5]: 409 nM; GI50 [6]: 451 nM |
| COc1cccc(CN2CCC(Nc3c(C(=O)NC4CCCC4)cnc4[nH]ccc34)CC2)c1 | 3280 nM | > 10000 nM | > 10000 nM | – | – | – |
| CNC(=O)c1cnc2[nH]ccc2c1N[C@@H]1CCN(Cc2cccc(OC)c2)C[C@@H]1F (relative stereo) | – | – | – | 9650 nM | 214 nM | – |
| CNC(=O)c1cnc2[nH]ccc2c1N[C@@H]1CCN(Cc2cccc(Cl)c2)[C@@H](C)C1 (relative stereo) | – | – | – | 4750 nM | 232 nM | GI50 [6]: > 10000 nM |
| CNC(=O)c1cnc2[nH]ccc2c1NC1CCN(Cc2cccc(C#N)c2)CC1 | 82 nM | 759 nM | 710 nM | – | – | – |
| CNC(=O)c1cnc2[nH]ccc2c1N[C@@H]1CCN(Cc2ccc(Cl)cc2)[C@H](C)C1 (relative stereo) [listing 1 of 2 here] | – | – | – | 655 nM | 10.5 nM | inhibition [8]: Active; inhibition [9]: Active; GI50 [6]: 1360 nM; inhibition [10]: Active; inhibition [11]: Active |
| CNC(=O)c1cnc2[nH]ccc2c1NC1CCCN(Cc2cccc(OC)c2)CC1 (centres undefined) | 8.61 nM | 4.34 nM | 42.7 nM | – | – | – |
| COc1cccc(CN2CC[C@@H](Nc3c(C(N)=O)cnc4[nH]ccc34)C[C@H]2C)c1 (relative stereo) | 17.2 nM | 57.6 nM | 157 nM | – | – | – |
| CNC(=O)c1cnc2[nH]ccc2c1NC1CCN(Cc2ccccc2)CC1 | 65 nM | – | 586 nM | – | – | – |
| O=C(Nc1nc2cccc(-c3ccc(CN4CCS(=O)(=O)CC4)cc3)n2n1)C1CC1 | – | – | – | 7190 nM | 798 nM | GI50 [5]: > 10000 nM; GI50 [6]: > 10000 nM; inhibition [11]: Active |
| O=C(NC1CC1)c1cnc2[nH]ccc2c1NC1CCN(Cc2ccccc2)CC1 | 114 nM | 232 nM | 1350 nM | – | – | – |
| CNC(=O)c1cnc2[nH]ccc2c1NC1CCCN(Cc2cccc(Cl)c2)CC1 (centres undefined) | – | – | – | > 10000 nM | 476 nM | GI50 [5]: 7690 nM; GI50 [6]: > 10000 nM |
| CNC(=O)c1cnc2[nH]ccc2c1NC1CCN(Cc2ccc(OC)cc2)CC1 | 202 nM | 3540 nM | – | – | – | – |
| CNC(=O)c1cnc2[nH]ccc2c1N[C@@H]1CCN(Cc2ccc(Cl)cc2)[C@H](C)C1 (relative stereo) [listing 2 of 2 here] | – | – | – | – | – | inhibition at 10 µM [12]: 70%; inhibition at 10 µM [13]: 77.1%; Papp A→B at 10 µM [14]: 1.9 ×10⁻⁶ cm/s; IC50 [15]: 106 nM; remaining at 0.5 h, 10 µM [16]: 28.2%; inhibition at 10 µM [17]: 74.8%; remaining at 2 h, 2 µM [18]: 92.6%; inhibition at 10 µM [19]: 92.9%; remaining at 0.5 h, 10 µM [20]: 80.6%; GI50 [21]: 5790 nM; remaining at 0.5 h, 10 µM [22]: 11.6%; GI50 at 48 h [23]: > 10000 nM; inhibition at 10 µM [24]: 75.7%; remaining at 2 h, 2 µM [25]: > 100%; Papp B→A at 10 µM [26]: 3.7 ×10⁻⁶ cm/s |
| CNC(=O)c1cnc2[nH]ccc2c1NC1CCCN(Cc2ccccc2)CC1 (centres undefined) | – | 89.3 nM | 276 nM | – | – | – |
| CNC(=O)c1cnc2[nH]ccc2c1NC1CCN(c2ccccc2)CC1 | 160 nM | – | – | – | – | – |
| COc1cccc(CN2CCC(Nc3c(C(=O)NC4CC4)cnc4[nH]ccc34)CC2)c1 | 2960 nM | > 10000 nM | > 10000 nM | – | – | – |
| COc1cccc(CN2CCC(Nc3c(C(N)=O)cnc4[nH]ccc34)CC2)c1 | 195 nM | – | – | – | – | – |
| NC(=O)c1cnc2[nH]ccc2c1NC1CCN(Cc2ccccc2)CC1 | – | – | 110 nM | – | – | – |
| CNC(=O)c1cnc2[nH]ccc2c1NC1CCN(Cc2ccccc2OC)CC1 | 406 nM | 7060 nM | 4180 nM | – | – | – |
| CNC(=O)c1cnc2[nH]ccc2c1N[C@@H]1CCN(Cc2ccc(Cl)cc2)[C@H](C)C1 | – | – | – | > 10000 nM | 2950 nM | GI50 [6]: > 10000 nM |
